How the values were obtained:
Type in all cases: in vivo
[1] = system: Surinam grass (Brachiaria decumbens); assay: Test B pre/postemergence; conditions: for Surinam Grass plant response rating: Postemergence; for Plant response rating, Surinam Grass: Preemergence
In short: (§1)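 Greenhouse whole-plant test; surfactant-containing non-phytotoxic solvent formulation; pre- and postemergence applications made simultaneously; post plants 2–18 cm, 1- to 4-leaf; visual scoring at 13–15 days on 0–100 scale relative to controls.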

[2] = system: barnyardgrass (Echinochloa crus-galli); assay: Test B pre/postemergence; conditions: for Barnyardgrass plant response rating: Postemergence; for Plant response rating, Barnyardgrass: Preemergence
In short: as §1

[3] = system: cocklebur (Xanthium strumarium); assay: Test B pre/postemergence; conditions: for Cocklebur plant response rating: Postemergence; for Plant response rating, Cocklebur: Preemergence
In short: as §1

corn (Zea mays) = assay: Test B pre/postemergence; conditions: for Corn plant response rating: Postemergence; for Plant response rating, Corn: Preemergence
In short: as §1

[4] = system: crabgrass (Digitaria sanguinalis); assay: Test B pre/postemergence; conditions: for Crabgrass plant response rating: Postemergence; for Plant response rating, Crabgrass: Preemergence
In short: as §1

[5] = system: giant foxtail (Setaria faberii); assay: Test B pre/postemergence; conditions: for Foxtail, Giant plant response rating: Postemergence; for Plant response rating, Foxtail, Giant: Preemergence
In short: as §1

[6] = system: lambsquarters (Chenopodium album); assay: Test B pre/postemergence; conditions: for Lambsquarters plant response rating: Postemergence; for Plant response rating, Lambsquarters: Preemergence
In short: as §1

[7] = system: morningglory (Ipomoea coccinea); assay: Test B pre/postemergence; conditions: for Morningglory plant response rating: Postemergence; for Plant response rating, Morningglory: Preemergence
In short: as §1

[8] = system: pigweed (Amaranthus retroflexus); assay: Test B pre/postemergence; conditions: for Pigweed plant response rating: Postemergence; for Plant response rating, Pigweed: Preemergence
In short: as §1

[9] = system: velvetleaf (Abutilon theophrasti); assay: Test B pre/postemergence; conditions: for Velvetleaf plant response rating: Postemergence; for Plant response rating, Velvetleaf: Preemergence
In short: as §1

[10] = system: wheat (Triticum aestivum); assay: Test B pre/postemergence; conditions: for Wheat plant response rating: Postemergence; for Plant response rating, Wheat: Preemergence
In short: as §1

[11] = system: blackgrass (Alopecurus myosuroides); assay: Test B postemergence; conditions: scale 0 to 100 (0 no effect, 100 complete control)
In short: as §1

wild oat (Avena fatua) = assay: Test B postemergence; conditions: scale 0 to 100 (0 no effect, 100 complete control)
In short: as §1

[12] = system: barnyardgrass (Echinochloa crus-galli); assay: Test B flooded paddy test; conditions: Flood, scale 0 to 100
In short: (§2)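 Rice, umbrella sedge, duck salad and barnyardgrass grown to 2-leaf stage under flooded paddy conditions and treated with formulated test chemicals. Kept in greenhouse 13–15 days, then visually rated against untreated controls on a 0–100 scale (0 no effect, 100 complete control).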

[13] = system: duck salad (Heteranthera limosa); assay: Test B flooded paddy test; conditions: Flood, scale 0 to 100
In short: as §2

rice (Oryza sativa) = assay: Test B flooded paddy test; conditions: Flood, scale 0 to 100
In short: as §2

[14] = system: umbrella sedge (Cyperus difformis); assay: Test B flooded paddy test; conditions: Flood, scale 0 to 100
In short: as §2

[15] = 62 g ai/ha, scale 0 to 100 (0 no effect, 100 complete control)
[16] = 125 g ai/ha, scale 0 to 100 (0 no effect, 100 complete control)
[17] = 62 g ai/ha, scale 0 to 100, 0 no effect, 100 complete control

COC(=O)c1nc(-c2ccc(Cl)cc2)nc(N)c1Br [Compound 83]
Surinam Grass plant response rating [1, 15]: 50
Surinam Grass plant response rating [1, 16]: 60
Plant response rating, Surinam Grass [1, 17]: 0
Plant response rating, Surinam Grass [1, 16]: 10
Barnyardgrass plant response rating [2, 15]: 50
Barnyardgrass plant response rating [2, 16]: 80
Plant response rating, Barnyardgrass [2, 17]: 20
Plant response rating, Barnyardgrass [2, 16]: 30
Cocklebur plant response rating [3, 15]: 90
Cocklebur plant response rating [3, 16]: 100
Plant response rating, Cocklebur [3, 17]: 10
Plant response rating, Cocklebur [3, 16]: 50
Corn plant response rating (corn (Zea mays); [15]): 10
Corn plant response rating (corn (Zea mays); [16]): 10
Plant response rating, Corn (corn (Zea mays); [17]): 0
Plant response rating, Corn (corn (Zea mays); [16]): 0
Crabgrass plant response rating [4, 15]: 50
Crabgrass plant response rating [4, 16]: 60
Plant response rating, Crabgrass [4, 17]: 30
Plant response rating, Crabgrass [4, 16]: 60
Foxtail, Giant plant response rating [5, 15]: 40
Foxtail, Giant plant response rating [5, 16]: 50
Plant response rating, Foxtail, Giant [5, 17]: 0
Plant response rating, Foxtail, Giant [5, 16]: 10
Lambsquarters plant response rating [6, 15]: 100
Lambsquarters plant response rating [6, 16]: 100
Plant response rating, Lambsquarters [6, 17]: 70
Plant response rating, Lambsquarters [6, 16]: 90
Morningglory plant response rating [7, 15]: 60
Morningglory plant response rating [7, 16]: 100
Plant response rating, Morningglory [7, 17]: 0
Plant response rating, Morningglory [7, 16]: 10
Pigweed plant response rating [8, 15]: 100
Pigweed plant response rating [8, 16]: 100
Plant response rating, Pigweed [8, 17]: 80
Plant response rating, Pigweed [8, 16]: 100
Velvetleaf plant response rating [9, 15]: 80
Velvetleaf plant response rating [9, 16]: 90
Plant response rating, Velvetleaf [9, 17]: 50
Plant response rating, Velvetleaf [9, 16]: 60
Wheat plant response rating [10, 15]: 0
Wheat plant response rating [10, 16]: 30
Plant response rating, Wheat [10, 17]: 20
Plant response rating, Wheat [10, 16]: 50
Blackgrass plant response rating ([11]; 62 g ai/ha): 50
Blackgrass plant response rating ([11]; 125 g ai/ha): 60
Oat, Wild plant response rating (wild oat (Avena fatua); 62 g ai/ha): 0
Oat, Wild plant response rating (wild oat (Avena fatua); 125 g ai/ha): 40
Plant response rating, Barnyardgrass ([12]; 125 g ai/ha): 0
Plant response rating, Barnyardgrass ([12]; 500 g ai/ha): 0
Plant response rating, Ducksalad ([13]; 125 g ai/ha): 100
Plant response rating, Ducksalad ([13]; 500 g ai/ha): 100
Plant response rating, Rice (rice (Oryza sativa); 125 g ai/ha): 0
Plant response rating, Rice (rice (Oryza sativa); 500 g ai/ha): 0
Plant response rating, Sedge, Umbrella ([14]; 125 g ai/ha): 90
Plant response rating, Sedge, Umbrella ([14]; 500 g ai/ha): 100

From patent publication US8802597B2, “Herbicidal pyrimidines” (E I du Pont de Nemours and Company, priority 2003, dated 2014)
